Experimental data as given in US9809587B2, “Pesticidally active heterocyclic derivatives with sulphur containing substituents” (Syngenta Participations AG, priority 2014, dated 2017).

Experiments:
Assay type in all cases: in vivo
[1] = tested on: Myzus persicae (Green Peach Aphid); test: Myzus persicae (green peach aphid), sprayed sunflower leaf discs; conditions: foliar, 144 h, application rate of 200 ppm, mixed ages on sunflower leaf discs, 6 days after infestation
Description: Example B4: Myzus persicae (Green Peach Aphid)
Sunflower leaf discs were placed on agar in a 24-well microtiter plate and sprayed with aqueous test solutions prepared from 10′000 ppm DMSO stock solutions. After drying, the leaf discs were infested with an aphid population of mixed ages. The samples were assessed for mortality 6 days after infestation.

[2] = tested on: Plutella xylostella (Diamond Back Moth); test: Plutella xylostella (diamond back moth), treated artificial diet; conditions: 120 h, application rate of 200 ppm, L2 larvae on artificial diet, 5 days after infestation, read-out: effect in at least one of the two categories (mortality or growth inhibition)
Description: Example B6: Plutella xylostella (Diamond Back Moth)
24-well microtiter plates with artificial diet were treated with aqueous test solutions prepared from 10′000 ppm DMSO stock solutions by pipetting. After drying, the plates were infested with L2 larvae (10 to 15 per well). The samples were assessed for mortality and growth inhibition in comparison to untreated samples 5 days after infestation.
The following compounds gave an effect of at least 80% in at least one of the two categories (mortality or growth inhibition) at an application rate of 200 ppm: […]

[3] = tested on: Diabrotica balteata (Corn Root Worm); test: Diabrotica balteata (corn root worm), sprayed maize sprouts; conditions: 96 h, application rate of 200 ppm, L2 larvae on maize sprouts, 4 days after infestation
Description: Example B2: Diabrotica balteata (Corn Root Worm)
Maize sprouts, placed on an agar layer in 24-well microtiter plates were treated with aqueous test solutions prepared from 10′000 ppm DMSO stock solutions by spraying. After drying, the plates were infested with L2 larvae (6 to 10 per well). The samples were assessed for mortality and growth inhibition in comparison to untreated samples 4 days after infestation.

[4] = tested on: Euschistus heros (Neotropical Brown Stink Bug); test: Euschistus heros (neotropical brown stink bug), sprayed soybean leaf; conditions: 120 h, application rate of 200 ppm, N-2 nymphs on soybean leaf, 5 days after infestation
Description: Example B3: Euschistus heros (Neotropical Brown Stink Bug)
Soybean leaf on agar in 24-well microtiter plates were sprayed with aqueous test solutions prepared from 10′000 ppm DMSO stock solutions. After drying the leaf were infested with N-2 nymphs. The samples were assessed for mortality in comparison to untreated samples 5 days after infestation.

[5] = tested on: Myzus persicae (Green Peach Aphid); test: Myzus persicae (green peach aphid), roots of pea seedlings in test solution; conditions: 144 h, test rate of 24 ppm, roots of infested pea seedlings in test solution, 6 days
Description: Example B5: Myzus persicae (Green Peach Aphid)
Roots of pea seedlings infested with an aphid population of mixed ages were placed directly in the aqueous test solutions prepared from 10′000 DMSO stock solutions. The samples were assessed for mortality 6 days after placing seedlings in test solutions.

[6] = tested on: Spodoptera littoralis (Egyqptian Cotton Leaf Worm); test: Spodoptera littoralis (Egyptian cotton leaf worm), sprayed cotton leaf discs; conditions: foliar, 72 h, application rate of 200 ppm, L1 larvae on cotton leaf discs, 3 days after infestation
Description: Example B7: Spodoptera littoralis (Egyqptian Cotton Leaf Worm)
Cotton leaf discs were placed on agar in 24-well microtiter plates and sprayed with aqueous test solutions prepared from 10′000 ppm DMSO stock solutions. After drying the leaf discs were infested with five L1 larvae. The samples were assessed for mortality, anti-feedant effect, and growth inhibition in comparison to untreated samples 3 days after infestation. Control of Spodoptera littoralis by a test sample is when at least one of mortality, anti-feedant effect, and growth inhibition is higher than the untreated sample.

[7] = tested on: Bemisia tabaci (Cotton White Fly); test: Bemisia tabaci (cotton white fly), sprayed cotton leaf discs; conditions: foliar, 144 h, application rate of 200 ppm, adult white flies on cotton leaf discs, 6 days after incubation
Description: Example B1: Bemisia tabaci (Cotton White Fly)
Cotton leaf discs were placed on agar in 24-well microtiter plates and sprayed with aqueous test solutions prepared from 10′000 ppm DMSO stock solutions. After drying the leaf discs were infested with adult white flies. The samples were checked for mortality 6 days after incubation.

[8] = tested on: Spodoptera littoralis (Egyqptian Cotton Leaf Worm); test: Spodoptera littoralis (Egyptian cotton leaf worm), compound in agar taken up by lettuce roots; conditions: 144 h, test rate of 12.5 ppm, uptake by lettuce roots from agar, 6 days after infestation, read-out: effect in at least one of the three categories (mortality, anti-feedancy, or growth inhibition)
Source text: Example B8: Spodoptera littoralis (Egyqptian Cotton Leaf Worm)
Test compounds were applied by pipette from 10′000 ppm DMSO stock solutions into 24-well plates and mixed with agar. Lettuce seeds were placed on the agar and the multi well plate was closed by another plate which contains also agar. After 7 days the roots have absorbed the compound and the lettuce has grown into the lid plate. The lettuce leafs were now cut off into the lid plate. Spodoptera eggs were pipetted through a plastic stencil on a humid gel blotting paper and the plate closed with it. The samples were assessed for mortality, anti-feedant effect and growth inhibition in comparison to untreated samples 6 days after infestation.
The following compounds gave an effect of at least 80% in at least one of the three categories (mortality, anti-feedancy, or growth inhibition) at a test rate of 12.5 ppm: […]

CCS(=O)(=O)c1cc(-c2cnc(N)nc2C)cnc1-c1nc2cc(C(F)(F)F)ncc2n1C [Compound P58]
≥ 80%: mortality at 200 ppm [1] | percent effect (mortality or growth inhibition) at 200 ppm [2] | mortality at 200 ppm [3] | mortality at 200 ppm [4] | mortality at 24 ppm [5]

CCS(=O)(=O)c1cc(-c2cccc(Cl)n2)cnc1-c1nc2cc(C(F)(F)F)ncc2n1C [Compound P59]
≥ 80%: percent control (mortality, anti-feedant effect or growth inhibition) at 200 ppm [6] | mortality at 200 ppm [7] | mortality at 200 ppm [1] | percent effect (mortality or growth inhibition) at 200 ppm [2] | mortality at 200 ppm [3] | mortality at 200 ppm [4] | percent control (mortality, anti-feedancy or growth inhibition) at 12.5 ppm [8]

CCS(=O)(=O)c1cc(-c2cc(OC)ccn2)cnc1-c1nc2cc(C(F)(F)F)ncc2n1C [Compound P109]
≥ 80%: percent control (mortality, anti-feedant effect or growth inhibition) at 200 ppm [6] | mortality at 200 ppm [1] | percent effect (mortality or growth inhibition) at 200 ppm [2] | mortality at 200 ppm [3] | mortality at 200 ppm [4] | mortality at 24 ppm [5]

CCS(=O)(=O)c1cc(-c2ncccc2NC(=O)C(F)(F)F)cnc1-c1nc2cc(C(F)(F)F)ncc2n1C [Compound P49]
≥ 80%: mortality at 200 ppm [1] | mortality at 200 ppm [4] | mortality at 24 ppm [5]

CCS(=O)(=O)c1cc(-c2cncc(Cl)c2)cnc1-c1nc2cc(C(F)(F)F)ncc2n1C [Compound P3]
≥ 80%: mortality at 200 ppm [1] | percent effect (mortality or growth inhibition) at 200 ppm [2] | mortality at 200 ppm [3] | mortality at 200 ppm [4] | mortality at 24 ppm [5]

CCS(=O)(=O)c1cc(-c2ccnc(C(F)(F)F)c2)cnc1-c1nc2cc(C(F)(F)F)ncc2n1C [Compound P46]
≥ 80%: percent control (mortality, anti-feedant effect or growth inhibition) at 200 ppm [6] | mortality at 200 ppm [7] | mortality at 200 ppm [1] | percent effect (mortality or growth inhibition) at 200 ppm [2] | mortality at 200 ppm [3] | mortality at 200 ppm [4] | percent control (mortality, anti-feedancy or growth inhibition) at 12.5 ppm [8]

CCS(=O)(=O)c1cc(-c2cnc(OC)nc2)cnc1-c1nc2cc(C(F)(F)F)ncc2n1C [Compound P9]
≥ 80%: percent control (mortality, anti-feedant effect or growth inhibition) at 200 ppm [6] | mortality at 200 ppm [1] | percent effect (mortality or growth inhibition) at 200 ppm [2] | mortality at 24 ppm [5]

CCS(=O)(=O)c1cc(-c2cccn3ncnc23)cnc1-c1nc2cc(C(F)(F)F)ncc2n1C [Compound P34]
≥ 80%: percent control (mortality, anti-feedant effect or growth inhibition) at 200 ppm [6] | mortality at 200 ppm [1] | percent effect (mortality or growth inhibition) at 200 ppm [2] | mortality at 200 ppm [3] | mortality at 200 ppm [4] | mortality at 24 ppm [5]

CCS(=O)(=O)c1cc(-n2ccc(C)n2)cnc1-c1nc2cc(C(F)(F)F)ncc2n1C [Compound P102]
≥ 80%: percent control (mortality, anti-feedant effect or growth inhibition) at 200 ppm [6] | mortality at 200 ppm [1] | percent effect (mortality or growth inhibition) at 200 ppm [2] | mortality at 200 ppm [3] | mortality at 200 ppm [4] | mortality at 24 ppm [5]

CCS(=O)(=O)c1cc(-c2cncc(C(F)(F)F)c2)cnc1-c1nc2cc(C(F)(F)F)ncc2n1C [Compound P66]
≥ 80%: percent control (mortality, anti-feedant effect or growth inhibition) at 200 ppm [6] | mortality at 200 ppm [7] | mortality at 200 ppm [1] | percent effect (mortality or growth inhibition) at 200 ppm [2] | mortality at 200 ppm [3] | mortality at 200 ppm [4]

CCS(=O)(=O)c1cc(-n2ccccc2=O)cnc1-c1nc2cc(C(F)(F)F)ncc2n1C [Compound P26]
≥ 80%: mortality at 200 ppm [1] | percent effect (mortality or growth inhibition) at 200 ppm [2] | mortality at 200 ppm [3] | mortality at 200 ppm [4] | mortality at 24 ppm [5]

CCS(=O)(=O)c1cc(-c2ccnc(Cl)c2)cnc1-c1nc2cc(C(F)(F)F)ncc2n1C [Compound P77]
≥ 80%: percent control (mortality, anti-feedant effect or growth inhibition) at 200 ppm [6] | mortality at 200 ppm [7] | mortality at 200 ppm [1] | percent effect (mortality or growth inhibition) at 200 ppm [2] | mortality at 200 ppm [3] | mortality at 200 ppm [4] | percent control (mortality, anti-feedancy or growth inhibition) at 12.5 ppm [8]

CCS(=O)(=O)c1cc(-c2cnc3nc(C)ccn23)cnc1-c1nc2cc(C(F)(F)F)ncc2n1C [Compound P37]
≥ 80%: mortality at 200 ppm [1] | percent effect (mortality or growth inhibition) at 200 ppm [2] | mortality at 200 ppm [3] | mortality at 200 ppm [4] | mortality at 24 ppm [5]

CCS(=O)(=O)c1cc(-c2ccnc(C)c2)cnc1-c1nc2cc(C(F)(F)F)ncc2n1C [Compound P53]
≥ 80%: percent control (mortality, anti-feedant effect or growth inhibition) at 200 ppm [6] | mortality at 200 ppm [1] | percent effect (mortality or growth inhibition) at 200 ppm [2] | mortality at 200 ppm [4] | percent control (mortality, anti-feedancy or growth inhibition) at 12.5 ppm [8] | mortality at 24 ppm [5]

CCS(=O)(=O)c1cc(-c2nccc(C)n2)cnc1-c1nc2cc(C(F)(F)F)ncc2n1C [Compound P103]
≥ 80%: percent control (mortality, anti-feedant effect or growth inhibition) at 200 ppm [6] | mortality at 200 ppm [7] | mortality at 200 ppm [1] | percent effect (mortality or growth inhibition) at 200 ppm [2] | mortality at 200 ppm [3] | mortality at 200 ppm [4] | percent control (mortality, anti-feedancy or growth inhibition) at 12.5 ppm [8]

CCS(=O)(=O)c1cc(-c2cncs2)cnc1-c1nc2cc(C(F)(F)F)ncc2n1C [Compound P60]
≥ 80%: percent control (mortality, anti-feedant effect or growth inhibition) at 200 ppm [6] | mortality at 200 ppm [1] | percent effect (mortality or growth inhibition) at 200 ppm [2] | mortality at 200 ppm [3] | mortality at 200 ppm [4] | mortality at 24 ppm [5]

CCS(=O)(=O)c1cc(-n2cnc(C(F)(F)F)c2)cnc1-c1nc2cc(C(F)(F)F)ncc2n1C [Compound P87]
≥ 80%: mortality at 200 ppm [1] | mortality at 200 ppm [3] | mortality at 24 ppm [5]
